# Test results reported in paper PMC11898752, “Functional Characterization of β-Glucuronidase Genes Involved in Baicalein Biosynthesis from Scutellaria baicalensis Based on Transcriptome Analysis” (International Journal of Molecular Sciences, 2025).
# How the values were obtained:
# GUS1 = tested on: T1, GUS1; experiment: HPLC of baicalein formed, Hanes-Woolf plot; format: biochemical, Scutellaria baicalensis; conditions: PBS pH 9, 45 °C, 40 min
# T1 construct: full-length ORF in pEASY-Blunt E1, His-tag purified from E. coli BL21(DE3), about 60 kDa on SDS-PAGE
# GUS2 = tested on: T2, GUS2; experiment: HPLC of baicalein formed, Hanes-Woolf plot; format: biochemical, Scutellaria baicalensis; conditions: PBS pH 9, 45 °C, 40 min
# T2 construct: full-length ORF in pEASY-Blunt E1, His-tag purified from E. coli BL21(DE3), about 55 kDa on SDS-PAGE
smiles,measurement,setting,value
O=C(O)[C@H]1O[C@@H](Oc2cc3oc(-c4ccccc4)cc(=O)c3c(O)c2O)[C@H](O)[C@@H](O)[C@@H]1O [baicalin],Km,GUS1,0.2826 mg/mL
same,Km,GUS2,0.2732 mg/mL
